Data published in ChEMBL document CHEMBL4393743, “Anti-tumor activity evaluation of novel tubulin and HDAC dual-targeting inhibitors” (Bioorg Med Chem Lett, 2019).
Active and inactive are the calls of the source. The calls are words filed in the database; no cut-off is given here.

Assays:
HeLa = assay: Antiproliferative activity against human HeLa cells assessed as cell growth inhibition incubated for 72 hrs by MTT assay; type: functional, cell-based
A549 [1] = assay: Antiproliferative activity against human A549 cells assessed as cell growth inhibition incubated for 72 hrs by MTT assay; type: functional, cell-based; settings: A549, 72 h
[2] = biological target: Histone deacetylase (Homo sapiens) (UniProt Q13547+O15379+Q9UBN7+Q92769+Q9UQL6+Q8WUI4+Q9BY41+Q96DB2+P56524+Q9UKV0+Q969S8); settings: HeLa, at 1 µM
Description: Inhibition of HDAC in human HeLa cell nuclear extracts at 1 uM

SGC-7901 = assay: Antiproliferative activity against human SGC7901 cells assessed as cell growth inhibition incubated for 72 hrs by MTT assay; type: functional, cell-based; settings: SGC-7901, 72 h
Tubulin = assay: Inhibition of tubulin polymerization (unknown origin) by spectrophotometric method; type: protein-complex assay, Homo sapiens
BGC-823 = assay: Antiproliferative activity against human BGC823 cells assessed as cell growth inhibition incubated for 72 hrs by MTT assay; type: functional, cell-based; settings: BGC-823, 72 h
MDA-MB-231 = assay: Antiproliferative activity against human MDA-MB-231 cells assessed as cell growth inhibition incubated for 72 hrs by MTT assay; type: functional, cell-based; settings: MDA-MB-231, 72 h
[3] = biological target: T1, Protein deacetylase HDAC6 (Homo sapiens, UniProt Q9UBN7); assay: Inhibition of HDAC6 (unknown origin) using Boc-Lys(Ac)-AMC as substrate incubated for 60 mins by fluorescence assay
T1 sequence (Q9UBN7 whole entry): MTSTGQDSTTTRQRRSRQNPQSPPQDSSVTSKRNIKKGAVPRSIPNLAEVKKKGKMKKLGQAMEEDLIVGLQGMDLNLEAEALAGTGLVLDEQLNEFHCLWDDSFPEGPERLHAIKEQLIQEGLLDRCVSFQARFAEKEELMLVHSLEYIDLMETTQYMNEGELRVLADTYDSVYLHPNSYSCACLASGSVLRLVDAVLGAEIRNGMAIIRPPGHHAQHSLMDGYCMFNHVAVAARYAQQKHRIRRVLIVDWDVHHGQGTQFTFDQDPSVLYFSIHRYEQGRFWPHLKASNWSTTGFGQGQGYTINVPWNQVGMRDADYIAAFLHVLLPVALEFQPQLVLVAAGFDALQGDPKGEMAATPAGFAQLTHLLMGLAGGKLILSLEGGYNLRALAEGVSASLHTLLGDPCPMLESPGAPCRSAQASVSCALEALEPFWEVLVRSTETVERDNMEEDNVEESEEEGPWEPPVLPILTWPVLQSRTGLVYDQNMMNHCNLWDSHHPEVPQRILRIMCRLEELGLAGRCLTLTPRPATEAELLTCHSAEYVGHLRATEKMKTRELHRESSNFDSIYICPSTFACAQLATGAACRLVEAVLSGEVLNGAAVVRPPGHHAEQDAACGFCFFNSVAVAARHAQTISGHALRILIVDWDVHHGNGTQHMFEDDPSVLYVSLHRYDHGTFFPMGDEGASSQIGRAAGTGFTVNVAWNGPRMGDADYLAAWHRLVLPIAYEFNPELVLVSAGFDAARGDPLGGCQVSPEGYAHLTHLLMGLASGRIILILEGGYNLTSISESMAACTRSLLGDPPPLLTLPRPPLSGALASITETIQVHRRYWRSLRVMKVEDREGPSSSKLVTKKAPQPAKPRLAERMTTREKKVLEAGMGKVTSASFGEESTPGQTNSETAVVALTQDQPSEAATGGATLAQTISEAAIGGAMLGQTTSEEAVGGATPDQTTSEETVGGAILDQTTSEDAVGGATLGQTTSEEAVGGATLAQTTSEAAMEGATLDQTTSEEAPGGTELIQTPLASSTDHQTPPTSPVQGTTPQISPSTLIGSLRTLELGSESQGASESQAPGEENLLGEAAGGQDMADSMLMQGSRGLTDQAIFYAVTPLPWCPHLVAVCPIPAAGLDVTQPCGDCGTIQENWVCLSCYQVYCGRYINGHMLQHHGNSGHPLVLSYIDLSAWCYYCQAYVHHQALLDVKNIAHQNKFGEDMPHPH

Histone deacetylase 1 = Histone deacetylase 1 (Homo sapiens, UniProt Q13547); assay: Inhibition of HDAC1 (unknown origin) using Boc-Lys(Ac)-AMC as substrate incubated for 60 mins by fluorescence assay
NCI-H460 = assay: Antiproliferative activity against human NCI-H460 cells assessed as cell growth inhibition incubated for 72 hrs by MTT assay; type: functional, cell-based; settings: NCI-H460, 72 h
MCF7 = assay: Antiproliferative activity against human MCF7 cells assessed as cell growth inhibition incubated for 72 hrs by MTT assay; type: functional, cell-based; settings: MCF7, 72 h
HCT-116 = assay: Antiproliferative activity against human HCT116 cells assessed as cell growth inhibition incubated for 72 hrs by MTT assay; type: functional, cell-based; settings: HCT-116, 72 h
Histone deacetylase = assay: Inhibition of HDAC in human HeLA cell nuclear extracts; type: cell-based
LoVo = assay: Antiproliferative activity against human LoVo cells assessed as cell growth inhibition incubated for 72 hrs by MTT assay; type: functional, cell-based
Histone deacetylase 8 = biological target: T2, Histone deacetylase 8 (Homo sapiens, UniProt Q9BY41); assay: Inhibition of HDAC8 (unknown origin) using Boc-Lys(Ac)-AMC as substrate incubated for 60 mins by fluorescence assay
T2 sequence (Q9BY41 whole entry): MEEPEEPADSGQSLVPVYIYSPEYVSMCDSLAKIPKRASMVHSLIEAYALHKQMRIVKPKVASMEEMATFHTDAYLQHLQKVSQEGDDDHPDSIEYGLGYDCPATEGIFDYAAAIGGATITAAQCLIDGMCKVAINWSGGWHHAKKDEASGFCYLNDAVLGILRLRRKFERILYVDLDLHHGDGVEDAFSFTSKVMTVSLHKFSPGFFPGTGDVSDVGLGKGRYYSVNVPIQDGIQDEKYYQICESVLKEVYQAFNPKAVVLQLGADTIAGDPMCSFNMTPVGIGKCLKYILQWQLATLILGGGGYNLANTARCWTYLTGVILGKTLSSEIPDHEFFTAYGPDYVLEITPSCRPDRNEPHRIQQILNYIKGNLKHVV

NCI-H226 = assay: Antiproliferative activity against human NCI-H226 cells assessed as cell growth inhibition incubated for 72 hrs by MTT assay; type: functional, cell-based; settings: NCI-H226, 72 h
MGC-803 = assay: Antiproliferative activity against human MGC803 cells assessed as cell growth inhibition incubated for 72 hrs by MTT assay; type: functional, cell-based; settings: MGC-803, 72 h
A549 [4] = assay: Induction of cell cycle arrest in human A549 cells assessed as accumulation at G0/G1 phase at 10 uM incubated for 36 hrs by propidium iodide staining based flow cytometry (reference value: 72.51%); type: functional
A549 [5] = assay: Induction of cell cycle arrest in human A549 cells assessed as accumulation at S phase at 10 uM incubated for 36 hrs by propidium iodide staining based flow cytometry (reference value: 16.66%); type: functional
A549 [6] = assay: Induction of apoptosis in human A549 cells assessed as early apoptotic cells at 10 uM incubated for 72 hrs by Annexin V-FITC/propidium iodide-staining based flow cytometric analysis (reference value: 1.8%); type: functional
A549 [7] = assay: Induction of cell cycle arrest in human A549 cells assessed as accumulation at G2/M phase at 10 uM incubated for 36 hrs by propidium iodide staining based flow cytometry (reference value: 10.83%); type: functional
A549 [8] = assay: Induction of apoptosis in human A549 cells assessed as late apoptotic cells at 10 uM incubated for 72 hrs by Annexin V-FITC/propidium iodide-staining based flow cytometric analysis (reference value: 5.69%); type: functional
A549 [9] = assay: Induction of apoptosis in human A549 cells assessed as live cells at 10 uM incubated for 72 hrs by Annexin V-FITC/propidium iodide-staining based flow cytometric analysis (reference value: 89.8%); type: functional
A549 [10] = assay: Antimigratory activity in human A549 cells at 5 to 10 uM incubated for 12 hrs in presence of mitomycin by inverted microscopic-based wound healing assay; type: functional, cell-based
A549 [11] = assay: Induction of apoptosis in human A549 cells assessed as necrotic cells at 10 uM incubated for 72 hrs by Annexin V-FITC/propidium iodide-staining based flow cytometric analysis (reference value: 2.76%); type: functional

Chain of Histone deacetylase 1 (Q13547 whole entry): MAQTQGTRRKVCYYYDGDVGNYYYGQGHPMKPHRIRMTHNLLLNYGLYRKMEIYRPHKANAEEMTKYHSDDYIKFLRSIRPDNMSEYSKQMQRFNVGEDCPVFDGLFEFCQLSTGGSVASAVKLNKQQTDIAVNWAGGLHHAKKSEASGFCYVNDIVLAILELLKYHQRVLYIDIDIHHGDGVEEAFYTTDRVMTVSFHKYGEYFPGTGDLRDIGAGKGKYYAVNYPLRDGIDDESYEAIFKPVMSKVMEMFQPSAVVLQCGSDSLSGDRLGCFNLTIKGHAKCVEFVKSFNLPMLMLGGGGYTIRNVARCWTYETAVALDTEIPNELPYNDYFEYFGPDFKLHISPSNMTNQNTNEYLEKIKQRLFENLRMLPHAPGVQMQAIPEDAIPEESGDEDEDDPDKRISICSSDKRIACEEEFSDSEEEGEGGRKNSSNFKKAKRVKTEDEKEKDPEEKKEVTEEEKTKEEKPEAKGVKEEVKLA

Compound | IC50 (HeLa) [µM] | IC50 (A549 [1]) [µM] | inhibition [2] [%] | IC50 (SGC-7901) [µM] | IC50 (LoVo) [µM] | also measured
COc1ccc(/C=C/C(=O)c2cc(OC)c(OC)c(OC)c2)cc1OCCCCC(=O)NO | 25.9 | 14.3 | 32.9 | > 50 |  | 
COc1ccc(/C=C(\C)C(=O)c2cc(OC)c(OC)c(OC)c2)cc1OCCCCCCCC(=O)NO | 19.4 | 20 | 92.3 | 28.3 | 9.93 | IC50 (Tubulin): 5 µM; IC50 (BGC-823): 15.2 µM; IC50 (MDA-MB-231): 11.8 µM; IC50 [3]: 0.0136 µM; IC50 (Histone deacetylase 1): 0.0152 µM; IC50 (NCI-H460): 20.2 µM; IC50 (MCF7): 12 µM; IC50 (HCT-116): 10.7 µM; IC50 (Histone deacetylase): 0.0715 µM; IC50 (Histone deacetylase 8): 4.91 µM; IC50 (NCI-H226): 23.2 µM; IC50 (MGC-803): 16.4 µM
COc1ccc(/C=C/C(=O)c2cc(OC)c(OC)c(OC)c2)cc1OCCCCCC(=O)NO | 24.6 | 9.4 | 78.5 | 25.2 |  | 
COc1ccc(/C=C/C(=O)c2cc(OC)c(OC)c(OC)c2)cc1OCCCC(=O)NO | 13.3 | 12.2 | 21.8 | 17.4 |  | 
COc1ccc(/C=C(\C)C(=O)c2cc(OC)c(OC)c(OC)c2)cc1OCCCCCCC(=O)NO | 16.6 | 11.5 | 86 | 20 |  | 
COc1ccc(/C=C/C(=O)c2cc(OC)c(OC)c(OC)c2)cc1OCCCCCCCC(=O)NO | 37.2 | 13.3 | 84.8 | > 50 |  | 

More lines, main results first:

IC50 (HeLa) [µM] | IC50 (A549 [1]) [µM] | inhibition [2] [%] | IC50 (SGC-7901) [µM] | IC50 (LoVo) [µM] | Compound | also measured
 |  |  | 1.03 | 2.15 | O=C(CCCCCCC(=O)Nc1ccccc1)NO [VORINOSTAT] | Activity (A549 [4]): 9.61%; Activity (A549 [5]): 39.53%; Activity (A549 [6]): 7.17%; Activity (A549 [7]): 50.86%; Activity (A549 [8]): 24%; Activity (A549 [9]): 60.3%; Activity (A549 [10]): Active; Activity (A549 [11]): 8.58%
0.44 | 1.02 |  | 1.13 | 3.99 | COc1ccc(/C=C/C(=O)c2cc(OC)c(OC)c(OC)c2)cc1O | IC50 (Tubulin): 4 µM; IC50 (BGC-823): 7.58 µM; IC50 (MDA-MB-231): 4.28 µM; IC50 (NCI-H460): 4.98 µM; IC50 (MCF7): 8.6 µM; IC50 (HCT-116): 2.85 µM; IC50 (NCI-H226): 4.38 µM; IC50 (MGC-803): 8.33 µM
3.15 | 1.45 | 35.4 | 13.9 |  | COc1ccc(/C=C(\C)C(=O)c2cc(OC)c(OC)c(OC)c2)cc1OCCCCC(=O)NO | 
> 50 | 1.51 |  | 2.06 |  | COc1ccc(/C=C(\C)C(=O)c2cc(OC)c(OC)c(OC)c2)cc1O | 
10.4 | 13.6 | 74.8 | 14 |  | COc1ccc(/C=C(\C)C(=O)c2cc(OC)c(OC)c(OC)c2)cc1OCCCCCC(=O)NO | 
21.4 | 7.15 | 87.3 | 24.5 | 12.6 | COc1ccc(/C=C/C(=O)c2cc(OC)c(OC)c(OC)c2)cc1OCCCCCCC(=O)NO | IC50 (Tubulin): 10.4 µM; IC50 (BGC-823): 11.5 µM; IC50 (MDA-MB-231): 15.2 µM; IC50 [3]: 0.0046 µM; IC50 (Histone deacetylase 1): 0.0363 µM; IC50 (NCI-H460): 13.2 µM; IC50 (MCF7): 17.9 µM; IC50 (HCT-116): 29.9 µM; IC50 (Histone deacetylase): 0.1326 µM; IC50 (Histone deacetylase 8): 3.88 µM; IC50 (NCI-H226): 15.7 µM; IC50 (MGC-803): 10.1 µM
